Drawing on patent US11731986B2 (Sanford Burnham Prebys Medical Discovery Institute, priority 2017, dated 2023), this text covers IC50 for 32 molecules.

This experiment has as its target T1, human LMPTP-A (Homo sapiens, UniProt P24666).
T1 sequence (P24666 1-158): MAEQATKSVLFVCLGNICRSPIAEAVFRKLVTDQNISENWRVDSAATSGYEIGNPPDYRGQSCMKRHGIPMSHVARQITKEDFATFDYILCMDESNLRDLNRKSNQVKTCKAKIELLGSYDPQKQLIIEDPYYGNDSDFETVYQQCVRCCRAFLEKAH
The experiment is described as follows: Enzyme Assay of Inhibition of LMPTP-A (phosphatase assay, OMFP or pNPP substrate). It is filed as biochemical. Particulars: Bis-Tris pH 6.0, 37° C. As for the experimental part: Phosphatase assays were performed in buffer containing 50 mM Bis-Tris, pH 6.0, 1 mM DTT and 0.01% Triton X-100 at 37° C. For assays conducted with 3-O-methylfluorescein phosphate (OMFP) as substrate, fluorescence was monitored continuously at λex=485 and λem=525 nm. For assays conducted with para-nitrophenylphosphate (pNPP) as substrate, the reaction was stopped by addition of 2× reaction volume of 1 M NaOH, and absorbance was measured at 405 nm. IC50 values of compounds of Formula (I), (II), (III), or (IV) were determined from plots of inhibitor concentration versus percentage of enzyme activity. For inhibitor selectivity assays, each PTP was incubated with either 0.4 mM OMFP or 5 mM pNPP in the presence of 40 μM compound or DMSO. […] For the inhibitor reversibility assay, 50 nM human LMPTP-A was pre-incubated with 10 μM of compound of Formula (I), (II), (III), or (IV) or DMSO for 5 min. The enzyme was diluted 100× in phosphatase assay buffer containing 0.4 mM OMFP and fluorescence was measured at the indicated time points.

pIC50: −log10 of the molar value.

As a reminder, the pIC50 is the negative decadic logarithm of the IC50, by convention in mol/L. High values mean a small IC50, low ones a large IC50. Turning to `CCN(CC)C(=O)c1ccc(-c2cc(NCCN3CCS(=O)(=O)CC3)c3cnccc3n2)cc1` [4-(4-((2-(1,1-Dioxidothiomorpholino)ethyl)amino)-1,6-naphthyridin-2-yl)-N,N-diethylbenzamide], the pIC50 was 4.70 to 6.00.
For `CCN(CC)C(=O)c1ccc(-c2cc(NCCN(C)C)c3cnccc3n2)cc1` [4-(4-((2-(Dimethylamino)ethyl)amino)-1,6-naphthyridin-2-yl)-N,N-diethylbenzamide] the value was 4.70 to 6.00; for `CCN(CC)C(=O)c1ccc(-c2cc(NCCCN3CCS(=O)(=O)CC3)c3cnccc3n2)cc1` [4-(4-((3-(1,1-Dioxidothiomorpholino)propyl)amino)-1,6-naphthyridin-2-yl)-N,N-diethylbenzamide], 4.70 to 6.00; for `O=C(NCCc1ccncc1)c1ccc(-c2cc(NCCCN3CCCCC3)c3cnccc3n2)cc1` [4-(4-((3-(piperidin-1-yl)propyl)amino)-1,6-naphthyridin-2-yl)-N-(2-(pyridin-4-yl)ethyl)benzamide], not below 6.00.
The molecule `O=C(NC1CCNCC1)c1ccc(-c2cc(NCCCN3CCCCC3)c3cnccc3n2)c(C(F)(F)F)c1` [4-(4-((3-(piperidin-1-yl)propyl)amino)-1,6-naphthyridin-2-yl)-N-(piperidin-4-yl)-3-(trifluoromethyl)benzamide] had a pIC50 of 4.70 to 6.00.
As to `O=C(NC1CCNCC1)c1ccc(-c2cc(NCCCN3CCCCC3)c3cnccc3n2)cc1` [4-(4-((3-(piperidin-1-yl)propyl)amino)-1,6-naphthyridin-2-yl)-N-(piperidin-4-yl)benzamide], the negative logarithm of the IC50 (pIC50) is not below 6.00.
For `O=C(O)c1ccc(-c2cc(NCCCN3CCCCC3)c3cnccc3n2)cc1` [4-(4-((3-(piperidin-1-yl)propyl)amino)-1,6-naphthyridin-2-yl)benzoic acid] the value was not below 6.00; for `CCN(CC)C(=O)c1ccc(-c2cc(NCCCN3CCCCC3)c3cncc(Br)c3n2)cc1` [4-(8-Bromo-4-((3-(piperidin-1-yl)propyl)amino)-1,6-naphthyridin-2-yl)-N,N-diethylbenzamide], not above 4.70.
In the case of `CN1CCC(NC(=O)c2ccc(-c3cc(NCCCN4CCCCC4)c4cncc(Br)c4n3)cc2)CC1` [4-(8-Bromo-4-((3-(piperidin-1-yl)propyl)amino)-1,6-naphthyridin-2-yl)-N-(1-methylpiperidin-4-yl)benzamide] it was not above 4.70; in that of `Cc1cncc2c(NCCCN3CCCCC3)cc(-c3ccc(C(=O)NC4CCN(C)CC4)cc3)nc12` [4-(8-Methyl-4-((3-(piperidin-1-yl)propyl)amino)-1,6-naphthyridin-2-yl)-N-(1-methylpiperidin-4-yl)benzamide], not above 4.70.
As to `Cc1cncc2c(NCCCN3CCCCC3)cc(-c3ccc(C(=O)NCCCN4CCCCC4)cc3)nc12` [4-(8-Methyl-4-((3-(piperidin-1-yl)propyl)amino)-1,6-naphthyridin-2-yl)-N-(3-(piperidin-1-yl)propyl)benzamide], the negative logarithm of the IC50 (pIC50) is not above 4.70.
In turn, `N#Cc1c(-c2cc(NCCCN3CCCCC3)c3cnccc3n2)ccc2[nH]c(C(=O)NC3CCNCC3)nc12` [4-cyano-5-(4-((3-(piperidin-1-yl)propyl)amino)-1,6-naphthyridin-2-yl)-N-(piperidin-4-yl)-1H-benzo[d]imidazole-2-carboxamide] showed a negative-log IC50 (pIC50) of 4.70 to 6.00.
With `O=C(NCCc1ccncc1)c1nc2cc(-c3cc(NCCCN4CCCCC4)c4cnccc4n3)ccc2[nH]1` [5-(4-((3-(piperidin-1-yl)propyl)amino)-1,6-naphthyridin-2-yl)-N-(2-(pyridin-4-yl)ethyl)-1H-benzo[d]imidazole-2-carboxamide], the negative logarithm of the IC50 (pIC50) was not below 6.00.
`O=C(NC1CCNCC1)c1nc2cc(-c3cc(NCCCN4CCCCC4)c4cnccc4n3)ccc2[nH]1` [5-(4-((3-(piperidin-1-yl)propyl)amino)-1,6-naphthyridin-2-yl)-N-(piperidin-4-yl)-1H-benzo[d]imidazole-2-carboxamide] had a pIC50 not below 6.00.
The molecule `CCNc1cc(-c2ccc3c(c2)cc(C(=O)NC2CCN(C)CC2)n3C)nc2ccncc12` [5-(4-(ethylamino)-1,6-naphthyridin-2-yl)-1-methyl-N-(1-methylpiperidin-4-yl)-1H-indole-2-carboxamide] gave a negative-log IC50 (pIC50) not below 6.00.
For `CCNc1cc(-c2ccc3[nH]c(C(=O)NCCCN4CCCCC4)nc3c2)nc2ccncc12` [5-(4-(ethylamino)-1,6-naphthyridin-2-yl)-N-(3-(piperidin-1-yl)propyl)-1H-benzo[d]imidazole-2-carboxamide] the value was 4.70 to 6.00; for `CNc1cc(-c2ccc3[nH]c(C(=O)NCCCN4CCCCC4)nc3c2)nc2ccncc12` [5-(4-(methylamino)-1,6-naphthyridin-2-yl)-N-(3-(piperidin-1-yl)propyl)-1H-benzo[d]imidazole-2-carboxamide], 4.70 to 6.00; for `COc1cc(-c2ccc3c(c2)cc(C(=O)NC2CCN(C)CC2)n3C)nc2ccncc12` [5-(4-methoxy-1,6-naphthyridin-2-yl)-1-methyl-N-(1-methylpiperidin-4-yl)-1H-indole-2-carboxamide], not above 4.70.
For the molecule `O=C(NC1CCNCC1)c1cc2ccc(-c3cc(NCCCN4CCCCC4)c4cnccc4n3)cc2[nH]1` [6-(4-(3-(Piperidin-1-yl)propylamino)-1,6-naphthyridin-2-yl)-N-(piperidin-4-yl)-1H-indole-2-carboxamide], the pIC50 is 4.70 to 6.00.
For `O=C(NC1CCNCC1)c1cc2ccc(-c3cc(NCCCN4CCCCC4)c4cnccc4n3)cc2s1` [6-(4-(3-(piperidin-1-yl)propylamino)-1,6-naphthyridin-2-yl)-N-(piperidin-4-yl)benzo[b]thiophene-2-carboxamide] the value was not below 6.00.
For `CN1CCC(Nc2cc(-c3ccc4c(c3)cc(C(=O)N3CCN(C)CC3)n4C)nc3ccncc23)CC1` [(1-Methyl-5-(4-((1-methylpiperidin-4-yl)amino)-1,6-naphthyridin-2-yl)-1H-indol-2-yl)(4-methylpiperazin-1-yl)methanone] the value was not below 6.00.
On to `CCN1CCN(C(=O)c2nc3cc(-c4cc(NCCCN5CCCCC5)c5cnccc5n4)ccc3n2CC)CC1` [(1-ethyl-5-(4-((3-(piperidin-1-yl)propyl)amino)-1,6-naphthyridin-2-yl)-1H-benzo[d]imidazol-2-yl)(4-ethylpiperazin-1-yl)methanone], for which the pIC50 was not below 6.00.
In turn, `CN1CCN(C(=O)c2cc3cc(-c4cc(NCc5ccc(CN6CCCCC6)cc5)c5cnccc5n4)ccc3n2C)CC1` [(1-methyl-5-(4-(4-(piperidin-1-ylmethyl)benzylamino)-1,6-naphthyridin-2-yl)-1H-indol-2-yl)(4-methylpiperazin-1-yl)methanone] had a pIC50 not below 6.00.
Consider `CCN1CCN(C(=O)c2cc3ccc(-c4cc(NCCCN5CCCCC5)c5cnccc5n4)cc3[nH]2)CC1` [(4-Ethylpiperazin-1-yl)(6-(4-(3-(piperidin-1-yl)propylamino)-1,6-naphthyridin-2-yl)-1H-indol-2-yl)methanone], for which the pIC50 is not below 6.00.
In the case of `CCN1CCN(C(=O)c2nc3cc(-c4cc(NCCCN5CCCCC5)c5cnccc5n4)ccc3[nH]2)CC1` [(4-ethylpiperazin-1-yl)(5-(4-((3-(piperidin-1-yl)propyl)amino)-1,6-naphthyridin-2-yl)-1H-benzo[d]imidazol-2-yl)methanone], the pIC50 was not below 6.00.
In the case of `CCN1CCN(C(=O)c2nc3cc(-c4cc(Nc5ccc(CN6CCCC6)cc5)c5cnccc5n4)ccc3[nH]2)CC1` [(4-ethylpiperazin-1-yl)(5-(4-((4-(pyrrolidin-1-ylmethyl)phenyl)amino)-1,6-naphthyridin-2-yl)-1H-benzo[d]imidazol-2-yl)methanone] it was not above 4.70; in that of `CCN1CCN(C(=O)c2cc3ccc(-c4cc(NCCCN5CCCCC5)c5cnccc5n4)cc3s2)CC1` [(4-ethylpiperazin-1-yl)(6-(4-(3-(piperidin-1-yl)propylamino)-1,6-naphthyridin-2-yl)benzo[b]thiophen-2-yl)methanone], 4.70 to 6.00.
In the case of `CN1CCN(C(=O)c2cc3ccc(-c4cc(NCCCN5CCCCC5)c5cnccc5n4)cc3s2)CC1` [(4-methylpiperazin-1-yl)(6-(4-(3-(piperidin-1-yl)propylamino)-1,6-naphthyridin-2-yl)benzo[b]thiophen-2-yl)methanone] it was not below 6.00; in that of `O=C(O)/C=C/c1ccc(-c2cc(NCCCN3CCCCC3)c3cnccc3n2)s1` [(E)-3-(5-(4-(3-(Piperidin-1-yl)propylamino)-1,6-naphthyridin-2-yl)thiophen-2-yl)acrylic acid], 4.70 to 6.00; in that of `CCN(CC)C(=O)/C=C/c1ccc(-c2cc(Nc3ccc(CN4CCCC4)cc3)c3cnccc3n2)cc1` [(E)-N,N-Diethyl-3-(4-(4-((4-(pyrrolidin-1-ylmethyl)phenyl)amino)-1,6-naphthyridin-2-yl)phenyl)acrylamide], 4.70 to 6.00.
For `CCN(CC)C(=O)/C=C/c1ccc(-c2cc(NCCCN3CCCCC3)c3cnccc3n2)s1` [(E)-N,N-Diethyl-3-(5-(4-(3-(piperidin-1-yl)propylamino)-1,6-naphthyridin-2-yl)thiophen-2-yl)acrylamide] the value was not above 4.70; for `CCN(CC)C(=O)/C=C/c1ccc(-c2cc(NCCCN3CCCCC3)c3cnccc3n2)o1` [(E)-N,N-Diethyl-3-(5-(4-((3-(piperidin-1-yl)propyl)amino)-1,6-naphthyridin-2-yl)furan-2-yl)acrylamide], 4.70 to 6.00.
